Measured values taken from paper PMC8523698, “Preclinical characterization of an intravenous coronavirus 3CL protease inhibitor for the potential treatment of COVID19” (Nature Communications, 2021).
“And” between values parts separate entries of the source, which are not always exact repeats. Equal values may be shown once. Read-outs that look alike come from different tables or passages of the source.

Tests used:
[1] = Rat 24-h continuous intravenous infusion GLP toxicity study; format: in vivo, Sprague-Dawley rats; details: Fig 6C reference line 0 to 72 h
[2] = test system: SARS-CoV-2 Washington strain 1 (USA_WA1/2020); format: cell-based; parameters: Percent Effect / Percent Effect (EC50 data): scale not given: direction of the effect not stated beside the values
HCoV-229E = experiment: Viral CPE assay in MRC-5 cells (CellTiter Glo); format: cell-based
MRC-5 cells = experiment: Cytotoxicity in MRC-5 cells
[3] = read-out: competitive Ki; vendor-verified compound file; ref Simcyp library; cited from earlier work
[4] = Human pharmacokinetic, Ceff and dose predictions; details: Fig 6C reference line, drawn from 0 to 72 h; head gives 500 nM
MDR1/P-gp = MDR1/P-gp (Homo sapiens, UniProt P08183); experiment: Transporter inhibition using membrane vesicles; details: uptake of N-methyl quinidine by MDR1; control inhibitor concentration 4.000 uM; single replicates
MDR1/P-gp, sequence (P08183 whole entry): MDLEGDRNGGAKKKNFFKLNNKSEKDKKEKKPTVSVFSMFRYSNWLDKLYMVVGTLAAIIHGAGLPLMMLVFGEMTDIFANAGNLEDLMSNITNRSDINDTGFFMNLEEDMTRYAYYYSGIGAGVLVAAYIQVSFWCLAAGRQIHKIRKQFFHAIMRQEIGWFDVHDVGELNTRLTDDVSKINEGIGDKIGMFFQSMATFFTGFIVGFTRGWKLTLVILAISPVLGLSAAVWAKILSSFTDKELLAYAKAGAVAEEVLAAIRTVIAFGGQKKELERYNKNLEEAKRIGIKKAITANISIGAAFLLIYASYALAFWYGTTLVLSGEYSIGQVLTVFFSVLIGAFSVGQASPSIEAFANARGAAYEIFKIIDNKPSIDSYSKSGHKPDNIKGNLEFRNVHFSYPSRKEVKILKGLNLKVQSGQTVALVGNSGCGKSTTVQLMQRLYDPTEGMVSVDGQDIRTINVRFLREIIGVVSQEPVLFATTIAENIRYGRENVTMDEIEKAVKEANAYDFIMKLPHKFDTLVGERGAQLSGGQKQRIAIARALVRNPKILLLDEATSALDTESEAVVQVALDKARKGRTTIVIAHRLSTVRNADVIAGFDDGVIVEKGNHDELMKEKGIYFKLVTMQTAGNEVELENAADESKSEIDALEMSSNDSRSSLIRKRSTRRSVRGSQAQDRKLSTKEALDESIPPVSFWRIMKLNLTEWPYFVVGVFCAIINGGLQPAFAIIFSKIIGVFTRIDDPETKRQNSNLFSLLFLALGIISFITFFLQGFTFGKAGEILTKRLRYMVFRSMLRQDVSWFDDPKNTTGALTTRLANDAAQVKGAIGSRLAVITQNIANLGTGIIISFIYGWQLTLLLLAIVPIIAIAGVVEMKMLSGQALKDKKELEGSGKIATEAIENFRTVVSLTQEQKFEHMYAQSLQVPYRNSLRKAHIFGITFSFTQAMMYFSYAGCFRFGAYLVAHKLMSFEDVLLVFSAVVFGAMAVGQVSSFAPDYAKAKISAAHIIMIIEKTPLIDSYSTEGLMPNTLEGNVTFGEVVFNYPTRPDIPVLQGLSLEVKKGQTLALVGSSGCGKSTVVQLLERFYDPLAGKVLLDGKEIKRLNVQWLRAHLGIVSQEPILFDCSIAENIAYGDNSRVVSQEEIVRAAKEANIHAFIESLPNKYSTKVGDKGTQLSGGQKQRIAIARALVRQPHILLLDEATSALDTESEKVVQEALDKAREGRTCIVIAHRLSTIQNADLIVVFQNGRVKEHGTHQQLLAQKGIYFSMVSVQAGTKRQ

COc1cccc2[nH]c(C(=O)N[C@@H](CC(C)C)C(=O)N[C@@H](C[C@@H]3CCNC3=O)C(=O)COP(=O)(O)O)cc12 [Pf-4814]
Reg tox Day 1 Rat with Pf-4814 Actove (Cave, uM) ([1]; Day 1, dosed with Pf-4814, Cave of active): 10.7 µM

COc1cccc2[nH]c(C(=O)N[C@@H](CC(C)C)C(=O)N[C@@H](C[C@@H]3CCNC3=O)C(=O)COP(=O)(O)O)cc12 [PF-07304814-00]
Percent Effect ([2]; 0.00976562 uM): 0.053% and 0.085% | Percent Effect ([2]; 0.0195312 uM): 2.09% and 3.15% | Percent Effect ([2]; 0.0390625 uM): 0.085% and 9.35% | Percent Effect ([2]; 0.078125 uM): -0.27% and 0.54% | Percent Effect (EC50 data) ([2]; 0.195312 uM): -0.82% | Percent Effect ([2]; 0.3125 uM): 2.28% and 1.63% | Percent Effect ([2]; 0.390625 uM): 7.76% and 0.81% and 1.70% and 4.09% and 0.21% and 2.38% and 2.51% and 3.73% | Percent Effect (EC50 data) ([2]; 0.390625 uM): -0.72% | Percent Effect ([2]; 0.625 uM): -1.46% and -0.53% | Percent Effect (EC50 data) ([2]; 0.78125 uM): 8.72% and 9.53% | Percent Effect (EC50 data) ([2]; 3.125 uM): 96.73% and 101.34% | Percent Effect (EC50 data) ([2]; 5 uM): 98.13% and 94.20% | Percent Effect (EC50 data) ([2]; 6.25 uM): 105.65% and 94.43% | Percent Effect (EC50 data) ([2]; 25 uM): 105.56% | Percent Effect (EC50 data) ([2]; 31.6456 uM): 95.69% and 95.38% and 91.49% and 94.38% | Percent Effect (EC50 data) ([2]; 50 uM): 95.66% | Percent Effect (EC50 data) ([2]; 100 uM): 87.92% and 94.81% and 91.90% and 95.50% | % Well Effect (EC50 data) (HCoV-229E; minus efflux inhibitor, 0.000949 uM): 1.31% and -4.82% and -7.06% and -4.29% and -0.06% | % Well Effect (EC50 data) (HCoV-229E; minus efflux inhibitor, 0.300053 uM): 80.07% and 80.97% and 97.35% and 80.44% and 65.29% and 92.74% | % Well Effect (EC50 data) (HCoV-229E; minus efflux inhibitor, 0.948767 uM): 81.04% and 93.59% and 91.22% and 85.19% and 91.91% and 88.72% | % Well Effect (EC50 data) (HCoV-229E; minus efflux inhibitor, 3 uM): 79.54% and 90.29% and 94.42% and 83.20% and 94.29% and 89.17% | % Well Effect (EC50 data) (HCoV-229E; plus 0.5 uM efflux inhibitor, 0.094893 uM): 70.28% and 62.16% and 55.71% and 62.75% and 53.71% and 73.85% | % Well Effect (EC50 data) (HCoV-229E; plus 0.5 uM efflux inhibitor, 0.300053 uM): 83.32% and 95.05% and 90.93% and 79.15% and 93.97% and 90.05% | % Well Effect (EC50 data) (HCoV-229E; plus 0.5 uM efflux inhibitor, 0.948767 uM): 82.39% and 96.75% and 87.38% and 79.38% and 95.45% and 97.43% | % Well Effect (EC50 data) (HCoV-229E; plus 0.5 uM efflux inhibitor, 3 uM): 80.02% and 92.89% and 93.90% and 81.60% and 91.07% and 95.86% | % Well Effect (CC50 data) (MRC-5 cells; minus efflux inhibitor, 0.031642 uM): -10.74% | % Well Effect (CC50 data) (MRC-5 cells; minus efflux inhibitor, 0.100053 uM): -6.45% and -4.39% | % Well Effect (CC50 data) (MRC-5 cells; minus efflux inhibitor, 3.16311 uM): -8.68% | % Well Effect (CC50 data) (MRC-5 cells; minus efflux inhibitor, 10.0018 uM): -6.54% | % Well Effect (CC50 data) (MRC-5 cells; plus 0.5 uM efflux inhibitor, 0.031642 uM): -2.54% and -3.43% | % Well Effect (CC50 data) (MRC-5 cells; plus 0.5 uM efflux inhibitor, 0.100053 uM): -2.51% and -2.24% and 4.92% | % Well Effect (CC50 data) (MRC-5 cells; plus 0.5 uM efflux inhibitor, 1.00035 uM): -1.28% and -4.08% | % Well Effect (CC50 data) (MRC-5 cells; plus 0.5 uM efflux inhibitor, 3.16311 uM): 5.87% and 5.13% | % Well Effect (CC50 data) (MRC-5 cells; plus 0.5 uM efflux inhibitor, 31.6256 uM): -2.89% and -4.52% | % Well Effect (CC50 data) (MRC-5 cells; plus 0.5 uM efflux inhibitor, 100 uM): 2.77% and -3.47% and 5.60% and -0.62%

COc1cccc2[nH]c(C(=O)N[C@@H](CC(C)C)C(=O)N[C@@H](C[C@@H]3CCNC3=O)C(=O)CO)cc12 [Pf-5231]
Reg tox Day 1 Rat with Pf-5231 Actove (Cave,uM) ([1]; Day 1, dosed with Pf-5231, Cave of active): 10.7 µM

CC(O)C(C)n1ncn(-c2ccc(N3CCN(c4ccc(OCC5COC(Cn6cncn6)(c6ccc(Cl)cc6Cl)O5)cc4)CC3)cc2)c1=O (stereo not drawn) [OH-itraconazole]
Ki [3]: 0.0023 µM

COc1cccc2[nH]c(C(=O)N[C@@H](CC(C)C)C(=O)N[C@@H](C[C@@H]3CCNC3=O)C(=O)CO)cc12 [Active]
Ceff SARS-COV2 (+P-gp inhib)= 500 nM [4]: 0.5

COc1cccc2[nH]c(C(=O)N[C@@H](CC(C)C)C(=O)N[C@@H](C[C@@H]3CCNC3=O)C(=O)COP(=O)(O)O)cc12 [PF-073048141]
CC50 (VeroE6-EGFP cells): > 50 µM | CC50 (VeroE6-EGFP cells; n=2): > 50 µM

C/C=C/C[C@@H](C)C(=O)[C@H]1C(=O)N[C@@H](C(C)C)C(=O)N(C)CC(=O)N(C)[C@@H](CC(C)C)C(=O)N[C@@H](C(C)C)C(=O)N(C)[C@@H](CC(C)C)C(=O)N[C@@H](C)C(=O)N[C@H](C)C(=O)N(C)[C@@H](CC(C)C)C(=O)N(C)[C@@H](CC(C)C)C(=O)N(C)[C@@H](C(C)C)C(=O)N1C [PSC833]
% PGP Uptake Activity (MDR1/P-gp): 0.2057% (2×) and -0.01029% (2×) and -0.1954% (2×)
